Measured values: ChEMBL document CHEMBL3797156, “(7-Diethylaminocoumarin-4-yl)methyl ester of suberoylanilide hydroxamic acid as a caged inhibitor for photocontrol of histone deacetylase activity” (Bioorg Med Chem, 2016)
Calls of active or inactive are those of the source. The calls are words filed in the database; no cut-off is given here.

Tests used:
[1] = Prodrug conversion in tris buffer assessed as suberoyl anilide hydroxamic acid formation at 200 uM followed 400 to 430 nm irradiation for 10 mins by HPLC analysis; assay type: ADME
[2] = target: T1, Histone deacetylase (Homo sapiens) (UniProt Q13547+O15379+Q9UBN7+Q92769+Q9UQL6+Q8WUI4+Q9BY41+Q96DB2+P56524+Q9UKV0+Q969S8); assay: Inhibition of human HDAC in HeLa cell nuclear extract in presence of irradiation at 400 to 430 nm for 1 to 10 mins incubated for 60 mins by HDAC-Glo 1/2 reagent based chemiluminescence analysis; assay type: cell-free
[3] = target: T1, Histone deacetylase (Homo sapiens); assay: Inhibition of human HDAC in HeLa cell nuclear extract for 60 mins by HDAC-Glo 1/2 reagent based chemiluminescence analysis; assay type: cell-free
HCT-116 = assay: Cytotoxicity against human HCT116 cells assessed as inhibition of cell growth at 10 and 30 uM preincubated for 3 hrs followed irradiation at 400 - 430 nm for 1, 3 and 10 min measured after 48 hrs by CellTiter-Glo assay; assay type: functional, cell-based

- Drug metabolism [1]: 54 µM
- inhibition [2]: Active
- inhibition [3]: inactive
Compound: CCN(CC)c1ccc2c(CONC(=O)CCCCCCC(=O)Nc3ccccc3)cc(=O)oc2c1
- Activity (HCT-116): Active
